# Columns and labels:
# [1] = tested on: human C-terminal FGF23; assay: C-terminal FGF23 (cFGF23) over time, two-site ELISA, trials IDA-04/IDA-05; format: in vivo
# Protocol: The trial was a randomized, open-label, comparative trial. Subjects with Iron Deficiency Anaemia (IDA) were randomized 1:1 to one treatment course of one of the following treatments: • Group A: iron isomaltoside 1000 (Monofer®, Pharmacosmos, Holbok, Denmark, termed iron isomaltoside in the following), 1000 mg at baseline • Group B: ferric carboxymaltose (Ferinject®/Injectafer®, Vifor Inc, Switzerland), 750 mg at baseline and day 7, cumulative dose: 1500 mg […]
# The following safety laboratory assessments were analysed: • S-phosphate: inorganic phosphorous forms an ammonium phosphomolybdate complex having the formula (NH4)3[PO4](MoO3)12 with ammonium molybdate in the presence of sulfuric acid. The complex was determined photometrically in the ultraviolet region (340 nm) of the spectrum using the Roche Modular and Cobas Analyzer. • iFGF23 and cFGF23: the human intact FGF23 was measured by the 2nd generation Elisa kit manufactured by Immonotropics, Inc, San Clemente, CA. […] The human C-terminal FGF23 was measured by the Elisa kit manufactured by Immonotropics, Inc, San Clemente, CA. […] After evaporation under nitrogen, the residue was reconstituted and analyzed using Liquid Chromatography (LC) with Tandem Mass Spectrometric detection (MS/MS). […]
# [2] = tested on: PTH; assay: Intact PTH sandwich immunoassay, trials IDA-04/IDA-05; format: in vivo, human; conditions: IDA-04 and IDA-05 combined
# From the text: The term “serum parathyroid hormone (PTH)” as used herein refers to the level of serum parathyroid hormone in blood serum as measured using a two-site sandwich immunoassay using direct chemiluminometric technology, which used constant amounts of two anti-human PTH antibodies. PTH, produced by the parathyroid gland, is the major circulating factor regulating extracellular calcium concentration. Abnormally low ionized calcium concentrations trigger the secretion of PTH. The PTH molecules bind to type 1 PTH receptors in target tissues and initiate a sequence of reactions that results in an increase in extracellular calcium concentrations. PTH stimulates osteoclastic bone resorption resulting in the release of calcium from bone. […]
# The following safety laboratory assessments were analysed: • S-phosphate: inorganic phosphorous forms an ammonium phosphomolybdate complex having the formula (NH4)3[PO4](MoO3)12 with ammonium molybdate in the presence of sulfuric acid. The complex was determined photometrically in the ultraviolet region (340 nm) of the spectrum using the Roche Modular and Cobas Analyzer. • iFGF23 and cFGF23: the human intact FGF23 was measured by the 2nd generation Elisa kit manufactured by Immonotropics, Inc, San Clemente, CA. […] The human C-terminal FGF23 was measured by the Elisa kit manufactured by Immonotropics, Inc, San Clemente, CA. […]
substance,measurement,setting,value
ferric carboxymaltose [FCM],cFGF23 on the first administration,[1]; initially high due to underlying iron deficiency anemia,dropped sharply
same,cFGF23 on the second administration,[1]; second administration (day 7),increased
same,PTH,[2],increase
